{"source": "patent US6509328B1", "about": "“Glutamate receptor antagonists” (Hoffmann-La Roche Inc., priority 1999, dated 2003)", "data": [{"values": [{"smiles": "O=C1CC(c2cccc(-n3cnnc3)c2)=Nc2ccc(-c3ccccc3F)cc2N1", "note": "[Example 99, 8-(2-Fluoro-phenyl)-4-(3-[1,2,4]triazol-4-yl-phenyl)-1,3-dihydro-benzo [b][1,4]diazepin-2-one]", "melting point": "198 °C"}, {"smiles": "N#Cc1cccc(C2=Nc3ccc(C4CC4)cc3NC(=O)C2)c1", "note": "[Example 111, 3-(7-Cyclopropyl-4-oxo-4,5-dihydro-3H-benzo [b][1,4]diazepin-2-yl)-benzonitrile]", "melting point": "204 to 209 °C"}, {"smiles": "N#Cc1cccc(C2=Nc3ccc(C#Cc4ccccn4)cc3NC(=O)C2)c1", "note": "[Example 26, 3-(4-Oxo-7-pyridin-2-ylethynyl-4,5-dihydro-3H-benzo[b][1,4]diazepin-2-yl)-benzonitrile]", "melting point": "229 to 231 °C (dec.)"}, {"smiles": "Cc1cccc(-c2ccc3c(c2)NC(=O)CC(c2cccc(C#N)c2)=N3)c1", "note": "[Example 30, 3-(4-Oxo-7-m-tolyl-4,5-dihydro-3H-benzo [b][1,4]diazepin-2-yl)-benzonitrile]", "melting point": "248 to 251 °C (dec.)"}, {"smiles": "COCSc1nccn1-c1cccc(C2=Nc3ccc(-c4ccccc4F)cc3NC(=O)C2)c1", "note": "[Example 102, 8-(2-Fluoro-phenyl)-4-[3-(2-methoxymethylsulfanyl-imidazol-1-yl)-phenyl]-1,3-dihydro-benzo[b][1,4]diazepin-2-one]", "melting point": "189 to 190 °C"}, {"smiles": "CN1CCN(C(=O)c2cccc(C3=Nc4ccc(C#Cc5ccccc5)cc4NC(=O)C3)c2)CC1", "note": "[Example 147, 4-[3-(4-Methyl-piperazine-1-carbonyl)-phenyl]-8-phenylethynyl-1,3-dihydro-benzo[b][1,4]diazepin-2-one]", "melting point": "168 to 172 °C (dec.)"}, {"smiles": "Cc1ccc(-c2ccc3c(c2)NC(=O)CC(c2cccc(C#N)c2)=N3)cc1", "note": "[Example 22, 3-(4-Oxo-7-p-tolyl-4,5-dihydro-3H-benzo[b][1,4]diazepin-2-yl)-benzonitrile]", "melting point": "242 to 245 °C (dec.)"}, {"smiles": "N#Cc1cccc(C2=Nc3ccc(C#Cc4ccc(F)cc4)cc3NC(=O)C2)c1", "note": "[Example 145, 3-[7-(4-Fluoro-phenylethynyl)-4-oxo-4,5-dihydro-3H-benzo [b][1,4]diazepin-2-yl]-benzonitrile]", "melting point": "245 to 246 °C"}, {"smiles": "O=C1CC(c2ccnc(-n3ccnc3)c2)=Nc2ccc(-c3ccc(F)cc3)cc2N1", "note": "[Example 69, 8-(4-Fluoro-phenyl)-4-(2-imidazol-1-yl-pyridin-4-yl)-1,3-dihydro-benzo [b][1,4]diazepin-2-one]", "melting point": "213 °C (dec.)"}, {"smiles": "O=C1CC(c2cccc(C(F)(F)F)c2)=Nc2ccc(-c3ccccc3)cc2N1", "note": "[Example 32, 8-Phenyl-4-(3-trifluoromethyl-phenyl)-1,3-dihydro-benzo [b][1,4]diazepin-2-one]", "melting point": "210 °C (dec.)"}, {"smiles": "Cc1cn(-c2nc(C3=Nc4ccc(-c5ccccc5F)cc4NC(=O)C3)cs2)cn1", "note": "[Example 106, 8-(2-Fluoro-phenyl)-4-[2-(4-methyl-imidazol-1-yl)-thiazol-4-yl]-1,3-dihydro-benzo[b][1,4]diazepin-2-one]", "melting point": "229 °C"}, {"smiles": "CCOC(=O)c1csc(-c2cccc(C3=Nc4ccc(-c5ccc(F)cc5)cc4NC(=O)C3)c2)n1", "note": "[Example 153, 2-{3-[7-(4-Fluoro-phenyl)-4-oxo-4,5-dihydro-3H-benzo [b][1,4]diazepin-2-yl]-phenyl}-thiazole-4-carboxylic Acid Ethyl Ester]", "melting point": "236 to 238 °C (dec.)"}, {"smiles": "N#Cc1cccc(C2=Nc3ccc(C4=CCN(S(=O)(=O)c5ccccc5)CC4)cc3NC(=O)C2)c1", "note": "[Example 45, 3-[7-(1-Benzenesulfonyl-1,2,3,6-tetrahydro-pyridin-4-yl)-4-oxo-4,5-dihydro-3H-benzo [b][1,4]diazepin-2-yl]-benzonitrile]", "melting point": "92 to 95 °C (dec.)"}, {"smiles": "CS(=O)(=O)Nc1cccc(C2=Nc3ccc(-c4ccc(F)cc4)cc3NC(=O)C2)c1", "note": "[Example 73, N-{3-[7-(4-Fluoro-phenyl)-4-oxo-4,5-dihydro-3H-benzo [b][1,4]diazepin-2-yl]-phenyl}-methanesulfonamide]", "melting point": "232 to 235 °C"}, {"smiles": "O=C1CC(c2cccs2)=Nc2ccc(I)cc2N1", "note": "[Example 25, 8-Iodo-4-thiophen-2-yl-1,3-dihydro-benzo[b][1,4]diazepin-2-one]", "melting point": "> 260 °C"}, {"smiles": "N#Cc1cccc(C2=Nc3ccc(C#Cc4ccccc4Cl)cc3NC(=O)C2)c1", "note": "[Example 4, 3-[7-(2-Chloro-phenylethynyl)-4-oxo-4,5-dihydro-3H-benzo[b][1,4]diazepin-2-yl]-benzonitrile]", "melting point": "239 to 240 °C (dec.)"}, {"smiles": "O=C1CC(c2sccc2Cl)=Nc2ccc(-c3ccccc3)cc2N1", "note": "[Example 38, 4-(3-Chloro-thiophen-2-yl)-8-phenyl-1,3-dihydro-benzo [b][1,4]diazepin-2-one]", "melting point": "228 °C (dec.)"}, {"smiles": "O=C1CC(c2cccc([N+](=O)[O-])c2)=Nc2ccc(-c3ccc(F)cc3)cc2N1", "note": "[Example 67, 8-(4-Fluoro-phenyl)-4-(3-nitro-phenyl)-1,3-dihydro-benzo [b][1,4]diazepin-2-one]", "melting point": "220 to 226 °C (dec.)"}, {"smiles": "O=C1CC(c2ccnc(-c3nc(CO)cs3)c2)=Nc2ccc(-c3ccc(F)cc3)cc2N1", "note": "[Example 158, 8-(4-Fluoro-phenyl)-4-[2-(4-hydroxymethyl-thiazol-2-yl)-pyridin-4-yl]-1,3-dihydro-benzo[b][1,4]diazepin-2-one]", "melting point": "225 to 229 °C"}, {"smiles": "CCc1ccc(-c2ccc3c(c2)NC(=O)CC(c2cccc(C#N)c2)=N3)cc1", "note": "[Example 9, 3-[7-(4-Ethyl-phenyl)-4-oxo-4,5-dihydro-3H-benzo[b][1,4]diazepin-2-yl]-benzonitrile]", "melting point": "225 to 229 °C (dec.)"}, {"smiles": "C[Si](C)(C)C#Cc1cccc(C2=Nc3ccc(C#Cc4ccccc4)cc3NC(=O)C2)c1", "melting point": "169 to 171 °C (dec.)"}, {"smiles": "N#Cc1cccc(C2=Nc3ccc(C(=O)c4ccccc4)cc3NC(=O)C2)c1", "note": "[Example 36, 3-(7-Benzoyl-4-oxo-4,5-dihydro-3H-benzo [b][1,4]diazepin-2-yl)-benzonitrile]", "melting point": "207 °C (dec.)"}, {"smiles": "N#Cc1cccc(C2=Nc3ccc(-c4ccsc4)cc3NC(=O)C2)c1", "note": "[Example 7, 3-(4-Oxo-7-thiophen-3-yl-4,5-dihydro-3H-benzo[b][1,4]diazepin-2-yl)-benzonitrile]", "melting point": "238 to 243 °C (dec.)"}, {"smiles": "N#Cc1cccc(C2=Nc3ccc(-c4cccc(F)c4F)cc3NC(=O)C2)c1", "note": "[Example 51, 3-[7-(2,3-Difluoro-phenyl)-4-oxo-4,5-dihydro-3H-benzo [b][1,4]diazepin-2-yl]-benzonitrile]", "melting point": "240 °C"}, {"smiles": "N#Cc1ccc(F)c(C2=Nc3ccc(-c4ccccc4F)cc3NC(=O)C2)c1", "note": "[Example 103, 4-Fluoro-3-[7-(2-fluoro-phenyl)-4-oxo-4,5-dihydro-3H-benzo [b][1,4]diazepin-2-yl]-benzonitrile]", "melting point": "239 °C"}, {"smiles": "Cc1nccn1-c1cccc(C2=Nc3ccc(-c4ccccc4F)cc3NC(=O)C2)c1", "note": "[Example 81, 8-(2-Fluoro-phenyl)-4-[3-(2-methyl-imidazol-1-yl)-phenyl]-1,3-dihydro-benzo[b][1,4]diazepin-2-one]", "melting point": "187 °C"}, {"smiles": "O=C1CC(c2cccc([N+](=O)[O-])c2)=Nc2ccc(C#Cc3ccccc3)cc2N1", "note": "[Example 56, 4-(3-Nitro-phenyl)-8-phenylethynyl-1,3-dihydro-benzo [b][1,4]diazepin-2-one]", "melting point": "228 to 229 °C"}, {"smiles": "O=C1CC(c2ccncc2)=Nc2ccc(C#Cc3ccccc3)cc2N1", "note": "[Example 12, 8-Phenylethynyl-4-pyridin-4-yl-1,3-dihydro-benzo[b][1,4]diazepin-2-one]", "melting point": "198 to 200 °C (dec.)"}, {"smiles": "N#Cc1cccc(C2=Nc3ccc(-c4cccnc4)cc3NC(=O)C2)c1", "note": "[Example 40, 3-(4-Oxo-7-pyridin-3-yl-4,5-dihydro-3H-benzo [b][1,4]diazepin-2-yl)-benzonitrile]", "melting point": "210 to 214 °C (dec.)"}, {"smiles": "O=C1CC(c2cccc(-c3nc(CO)cs3)c2)=Nc2ccc(-c3ccc(F)cc3)cc2N1", "note": "[Example 156, 8-(4-Fluoro-phenyl)-4-[3-(4-hydroxymethyl-thiazol-2-yl)-phenyl]-1,3-dihydro-benzo[b][1,4]diazepin-2-one]", "melting point": "235 to 239 °C (dec.)"}, {"smiles": "N#Cc1cccc(C2=Nc3ccc(C#Cc4ccc(Cl)cc4)cc3NC(=O)C2)c1", "note": "[Example 16, 3-[7-(4-Chloro-phenylethynyl)-4-oxo-4,5-dihydro-3H-benzo[b][1,4]diazepin-2-yl]-benzonitrile]", "melting point": "237 to 240 °C (dec.)"}, {"smiles": "Cc1cn(-c2cccc(C3=Nc4ccc(-c5ccccc5F)cc4NC(=O)C3)c2)c(C)n1", "note": "[Example 101, 4-[3-(2,4-Dimethyl-imidazol-1-yl)-phenyl]-8-(2-fluoro-phenyl)-1,3-dihydro-benzo[b][1,4]diazepin-2-one]", "melting point": "92 °C"}, {"smiles": "N#Cc1cccc(C2=Nc3ccc(C#Cc4ccc(OC(F)(F)F)cc4)cc3NC(=O)C2)c1", "note": "[Example 55, 3-[4-Oxo-7-(4-trifluoromethoxy-phenylethynyl)-4,5-dihydro-3H-benzo [b][1,4]diazepin-2-yl]-benzonitrile]", "melting point": "239 to 241 °C"}, {"smiles": "CCOC(=O)c1csc(-c2cccc(C3=Nc4ccc(-c5ccccc5F)cc4NC(=O)C3)c2)n1", "note": "[Example 154, 2-{3-[7-(2-Fluoro-phenyl)-4-oxo-4,5-dihydro-3H-benzo [b][1,4]diazepin-2-yl]-phenyl}-thiazole-4-carboxylic Acid Ethyl Ester]", "melting point": "172 to 175 °C"}, {"smiles": "N#Cc1cccc(C2=Nc3ccc(-c4ccccc4Cl)cc3NC(=O)C2)c1", "note": "[Example 33, 3-[7-(2-Chloro-phenyl)-4-oxo-4,5-dihydro-3H-benzo [b][1,4]diazepin-2-yl]-benzonitrile]", "melting point": "240 to 244 °C (dec.)"}, {"smiles": "N#Cc1cccc(C2=Nc3ccc(-c4ccoc4)cc3NC(=O)C2)c1", "note": "[Example 14, 3-(7-Furan-3-yl-4-oxo-4,5-dihydro-3H-benzo[b][1,4]diazepin-2-yl)-benzonitrile]", "melting point": "228 to 233 °C (dec.)"}, {"smiles": "N#Cc1cccc(C2=Nc3ccc(C#Cc4ccc(F)cc4F)cc3NC(=O)C2)c1", "note": "[Example 130, 3-[7-(2,4-Difluoro-phenylethynyl)-4-oxo-4,5-dihydro-3H-benzo [b][1,4]diazepin-2-yl]-benzonitrile]", "melting point": "240 to 246 °C"}, {"smiles": "N#Cc1cccc(C2=Nc3ccc(-c4ccco4)cc3NC(=O)C2)c1", "note": "[Example 8, 3-(7-Furan-2-yl-4-oxo-4,5-dihydro-3H-benzo[b][1,4]diazepin-2-yl)-benzonitrile]", "melting point": "205 to 210 °C (dec.)"}]}]}
